The record followed here is US20260125378A2, “Heterocyclic Compounds” (BeOne Medicines I GmbH, priority 2023, published 2026).

For experiment [1], the target named is T1, Full length DGKα (D21-10BG, SignalChem) (Homo sapiens, UniProt P23743).
T1 construct: Full length DGKα (D21-10BG, SignalChem); purchased SignalChem D21-10BG
The experiment in a line: Biochemical DGK IC50 assay (ADP-Glo, lipid micelle substrate), DGKα. The note with it: 1 hour preincubation, 1 hour reaction, room temperature. The method, boiled down:
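Full-length human DGKα with DAG/PS lipid micelle substrate (in octyl glucoside buffer), reacted 1 h at room temperature in 50 mM HEPES, 10 mM MgCl2, 0.01 mM CaCl2, 0.1 mM Na3VO4, 0.01% BSA, 0.005% Tween-20. ADP formed read by ADP-Glo luminescence; IC50 from inhibition across increasing compound concentrations.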
(In ADP-Glo the light output rises with the ADP produced.)

Experiment [2] concerns the target T2, Full length DGKζ (in-house protein M1-V929) (Homo sapiens, UniProt Q13574).
T2 construct: His (N); TEV site (N); made in house; host or cells: Sf9 insect cells (Bac-to-Bac baculovirus)
Kind of experiment: Biochemical DGK IC50 assay (ADP-Glo, lipid micelle substrate), DGKζ. Conditions: 1 hour preincubation, 1 hour reaction, room temperature. The method, boiled down: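 Full-length human DGKζ (M1-V929, His-TEV tagged, Sf9 baculovirus-expressed) with DAG/PS lipid micelle substrate in octyl glucoside, at room temperature in 50 mM HEPES, 10 mM MgCl2, 0.01 mM CaCl2 buffer.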

The structures appear in SMILES notation.

T2 sequence (Q13574 1-929 isoform Q13574-4): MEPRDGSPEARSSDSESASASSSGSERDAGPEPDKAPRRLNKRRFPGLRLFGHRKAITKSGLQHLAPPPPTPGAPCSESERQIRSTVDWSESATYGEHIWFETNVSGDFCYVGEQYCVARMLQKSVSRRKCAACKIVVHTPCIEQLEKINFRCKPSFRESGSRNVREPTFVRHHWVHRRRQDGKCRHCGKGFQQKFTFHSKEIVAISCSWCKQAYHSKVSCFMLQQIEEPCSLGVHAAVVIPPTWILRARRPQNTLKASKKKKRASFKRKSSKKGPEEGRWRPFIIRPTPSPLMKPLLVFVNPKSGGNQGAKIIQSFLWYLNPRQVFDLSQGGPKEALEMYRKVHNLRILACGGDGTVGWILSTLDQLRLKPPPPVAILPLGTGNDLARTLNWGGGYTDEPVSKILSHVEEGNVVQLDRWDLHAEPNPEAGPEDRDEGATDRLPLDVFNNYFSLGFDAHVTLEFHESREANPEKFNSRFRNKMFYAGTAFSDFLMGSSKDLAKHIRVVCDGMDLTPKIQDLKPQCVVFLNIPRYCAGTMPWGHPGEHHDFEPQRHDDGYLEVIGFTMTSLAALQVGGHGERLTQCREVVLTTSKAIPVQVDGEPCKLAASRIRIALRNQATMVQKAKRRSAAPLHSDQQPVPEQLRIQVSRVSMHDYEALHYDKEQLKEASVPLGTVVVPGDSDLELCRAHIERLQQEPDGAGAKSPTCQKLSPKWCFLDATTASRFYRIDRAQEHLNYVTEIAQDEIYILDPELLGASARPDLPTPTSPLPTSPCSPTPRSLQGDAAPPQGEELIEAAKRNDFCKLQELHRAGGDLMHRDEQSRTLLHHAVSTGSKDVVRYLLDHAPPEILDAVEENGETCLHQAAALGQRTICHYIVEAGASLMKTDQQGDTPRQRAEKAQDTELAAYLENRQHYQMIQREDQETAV
T1 sequence (P23743 whole entry): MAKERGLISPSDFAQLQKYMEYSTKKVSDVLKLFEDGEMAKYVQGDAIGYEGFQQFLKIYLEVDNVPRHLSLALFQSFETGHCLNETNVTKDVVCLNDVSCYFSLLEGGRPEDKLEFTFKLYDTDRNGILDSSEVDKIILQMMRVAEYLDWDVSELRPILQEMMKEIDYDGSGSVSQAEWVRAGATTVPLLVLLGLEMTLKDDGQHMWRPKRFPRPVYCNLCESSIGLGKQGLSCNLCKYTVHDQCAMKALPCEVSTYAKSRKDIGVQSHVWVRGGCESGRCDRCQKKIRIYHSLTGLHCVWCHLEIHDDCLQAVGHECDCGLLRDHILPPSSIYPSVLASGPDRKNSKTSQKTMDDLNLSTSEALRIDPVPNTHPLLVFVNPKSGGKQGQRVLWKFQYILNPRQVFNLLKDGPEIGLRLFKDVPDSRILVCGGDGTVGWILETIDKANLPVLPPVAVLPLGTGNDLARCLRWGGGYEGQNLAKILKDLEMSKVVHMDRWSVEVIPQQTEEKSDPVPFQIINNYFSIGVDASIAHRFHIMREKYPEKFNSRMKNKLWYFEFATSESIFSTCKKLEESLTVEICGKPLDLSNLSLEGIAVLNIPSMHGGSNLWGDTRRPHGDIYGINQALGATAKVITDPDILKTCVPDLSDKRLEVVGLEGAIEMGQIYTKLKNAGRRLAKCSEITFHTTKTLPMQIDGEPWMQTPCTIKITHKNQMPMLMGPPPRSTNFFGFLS

A word on the IC50: it is the concentration that inhibits the measured activity by half. A high value points to lower potency. With `CCn1c(CC#N)nc2c(N3C[C@@H](C)N(C(C)c4ccc5c(c4F)OC(C)(C)O5)C[C@@H]3C)nc(=O)n(C)c21` (single isomer, unassigned) [Compound A175a], the IC50 is 37200 nM in experiment [1] and 291 nM in experiment [2].
With `COc1cc(F)ccc1C(C)N1C[C@H](C)N(c2nc(=O)n(C)c3c2nc(CC#N)n3C)C[C@H]1C` (single isomer, unassigned) [Compound A24b], the results for the IC50 in experiment [1] and in experiment [2] were 131000 nM and 42 nM, respectively.
For `COCc1cc(F)ccc1C(C)N1C[C@H](C)N(c2nc(=O)n(C)c3c2nc(CC#N)n3C)C[C@H]1C` (single isomer, unassigned) [Compound A27a] the same measures were over 10000 nM and 569 nM.
With `Cc1ccc(C(C)N2C[C@H](C)N(c3cc(=O)n(C)c4c3nc(CC#N)n4C)C[C@H]2C)c(C(F)(F)F)c1` (single isomer, unassigned) [Compound A8b], the half-inhibitory concentration (IC50) in experiment [1] was over 150000 nM; in experiment [2], 97 nM.
With `CCn1c(CC#N)nc2c(N3C[C@@H](C)N(C(C)c4ccnc5c4OCCC5(F)F)C[C@@H]3C)nc(=O)n(C)c21` (single isomer, unassigned) [Compound A103a], the IC50 in experiment [1] was over 150000 nM; in experiment [2], 524 nM.
For `CCn1c(CC#N)nc2c(N3C[C@@H](C)N(C(C)c4ccc5c(c4F)OC(C)(C)O5)C[C@@H]3C)nc(=O)n(C)c21` (stereo partly drawn) [Compound A175, 2-(9-ethyl-6-((2S,5R)-4-(1-(4-fluoro-2,2-dimethylbenzo[d][1,3]dioxol-5-yl)ethyl)-2,5-dimethylpiperazin-1-yl)-3-methyl-2-oxo-3,9-dihydro-2H-purin-8-yl)acetonitrile] the same measures were 22200 nM and 5 nM.
`COc1cc(F)ccc1C(C)N1C[C@H](C)N(c2c(F)c(=O)n(C)c3c2nc(CC#N)n3C)C[C@H]1C` (stereo partly drawn) [Compound A16, 2-(6-fluoro-7-((2S,5R)-4-(1-(4-fluoro-2-methoxyphenyl)ethyl)-2,5-dimethylpiperazin-1-yl)-3,4-dimethyl-5-oxo-4,5-dihydro-3H-imidazo[4,5-b]pyridin-2-yl)acetonitrile]: the half-inhibitory concentration (IC50) in experiment [1] turned out to be 58200 nM; in experiment [2], 24 nM.
For `CCn1c(CC#N)nc2c(N3C[C@@H](C)N(C(C)c4csc(C(F)(F)F)n4)C[C@@H]3C)nc(=O)n(C)c21` (stereo partly drawn) [Compound A104, 2-(6-((2S,5R)-2,5-dimethyl-4-(1-(2-(trifluoromethyl)thiazol-4-yl)ethyl)piperazin-1-yl)-9-ethyl-3-methyl-2-oxo-3,9-dihydro-2H-purin-8-yl)acetonitrile] the same measures were over 150000 nM and 839 nM.
For `CC(c1ccc2c(c1)OC(C)(C)O2)N1C[C@H](C)N(c2nc(=O)n(C)c3c2nc(CC#N)n3C)C[C@H]1C` (stereo partly drawn) [Compound A98, 2-(6-((2S,5R)-4-(1-(2,2-dimethylbenzo[d][1,3]dioxol-5-yl)ethyl)-2,5-dimethylpiperazin-1-yl)-3,9-dimethyl-2-oxo-3,9-dihydro-2H-purin-8-yl)acetonitrile] the same measures were 11600 nM and 5 nM.
Take `CCn1c(CC#N)nc2c(N3C[C@@H](C)N(C(C)c4ccc5sc(C)nc5c4)C[C@@H]3C)nc(=O)n(C)c21` (stereo partly drawn) [Compound A55, 2-(6-((2S,5R)-2,5-dimethyl-4-(1-(2-methylbenzo[d]thiazol-5-yl)ethyl)piperazin-1-yl)-9-ethyl-3-methyl-2-oxo-3,9-dihydro-2H-purin-8-yl)acetonitrile]: the IC50 in experiment [1] came out at 68700 nM; in experiment [2], 31 nM.
`CCn1c(CC#N)nc2c(N3C[C@@H](C)N(C(C)c4ccc(C(F)(F)F)cc4)C[C@@H]3C)nc(=O)n(C)c21` (stereo partly drawn) [Compound A40, 2-(6-((2S,5R)-2,5-dimethyl-4-(1-(4-(trifluoromethyl)phenyl)ethyl)piperazin-1-yl)-9-ethyl-3-methyl-2-oxo-3,9-dihydro-2H-purin-8-yl)acetonitrile]: the results for the 50% inhibitory concentration (IC50) in experiment [1] and in experiment [2] were 25900 nM and 398 nM, respectively.
